Measured values reported in publication PMC8764529, “Diversification by CofC and Control by CofD Govern Biosynthesis and Evolution of Coenzyme F420 and Its Derivative 3PG-F420” (mBio, 2022).

What was measured:
[1] = biological target: T1, CofC (Archaeon GBE54128) (archaeon BMS3Bbin15, UniProt A0A2H6JTR5); test: combined CofC/D assay, LC-MS; format: biochemical; conditions: competitive mixture of 3-PG, 2-PL, PEP ([…] each), […] GTP, […] MgCl2, FO, Mjan-CofD, pH […]
T1 construct: N-terminal His6, E. coli; synthetic gene
T1 sequence (A0A2H6JTR5 1-207): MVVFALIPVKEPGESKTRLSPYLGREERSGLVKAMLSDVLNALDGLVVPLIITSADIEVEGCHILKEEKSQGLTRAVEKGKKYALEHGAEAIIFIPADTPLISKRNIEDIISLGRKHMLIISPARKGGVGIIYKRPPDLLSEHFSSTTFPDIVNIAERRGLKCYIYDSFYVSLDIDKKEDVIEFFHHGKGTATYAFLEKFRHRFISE

[2] = biological target: T2, CofC (Ca. H. archaeon) (Candidatus Hydrothermarchaeota archaeon, UniProt A0A497JEJ7); test: combined CofC/D assay, LC-MS; format: biochemical; conditions: competitive mixture of 3-PG, 2-PL, PEP ([…] each), […] GTP, […] MgCl2, FO, Mjan-CofD, pH […]
T2 construct: N-terminal His6, E. coli; synthetic gene; full organism name only in supplement
T2 sequence (A0A497JEJ7 1-207): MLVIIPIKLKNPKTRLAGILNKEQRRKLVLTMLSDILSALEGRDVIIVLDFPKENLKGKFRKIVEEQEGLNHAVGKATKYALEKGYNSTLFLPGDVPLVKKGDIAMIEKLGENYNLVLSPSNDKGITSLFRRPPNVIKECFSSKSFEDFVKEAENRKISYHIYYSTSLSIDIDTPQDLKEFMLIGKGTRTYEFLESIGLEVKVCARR

[3] = biological target: T3, CofC (Thermomicrobium roseum) (Thermomicrobium roseum, UniProt B9L4T8); test: combined CofC/D assay, LC-MS; format: biochemical; conditions: competitive mixture of 3-PG, 2-PL, PEP (0.5 mM each), 2 mM GTP, 2 mM MgCl2, FO, Mjan-CofD, pH 7.4
T3 construct: gene fbiD; N-terminal His6, E. coli
T3 sequence (B9L4T8 1-200): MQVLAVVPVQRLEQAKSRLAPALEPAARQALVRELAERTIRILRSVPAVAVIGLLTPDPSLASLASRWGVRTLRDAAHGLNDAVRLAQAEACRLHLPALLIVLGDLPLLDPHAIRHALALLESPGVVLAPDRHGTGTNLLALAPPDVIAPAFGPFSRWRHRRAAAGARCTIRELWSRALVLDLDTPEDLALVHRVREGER

[4] = biological target: T4, Mmaz-CofC (Methanosarcina mazei, UniProt Q8PU52); test: combined CofC/D assay, LC-MS; format: biochemical; conditions: competitive mixture of 3-PG, 2-PL, PEP (0.5 mM each), 2 mM GTP, 2 mM MgCl2, FO, Mjan-CofD, pH 7.4
T4 construct: N-terminal His6, E. coli
T4 sequence (Q8PU52 1-208): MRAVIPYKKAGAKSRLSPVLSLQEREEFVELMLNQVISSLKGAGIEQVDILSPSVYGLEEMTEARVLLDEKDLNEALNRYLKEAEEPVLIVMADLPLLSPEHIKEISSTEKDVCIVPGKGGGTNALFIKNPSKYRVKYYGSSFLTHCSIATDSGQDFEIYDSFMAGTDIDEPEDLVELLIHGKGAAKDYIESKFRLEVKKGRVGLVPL

[5] = biological target: T5, CofC (Paracoccus denitrificans) (Paracoccus denitrificans, UniProt A1B131); test: combined CofC/D assay, LC-MS; format: biochemical; conditions: competitive mixture of 3-PG, 2-PL, PEP (0.5 mM each), 2 mM GTP, 2 mM MgCl2, FO, Mjan-CofD, pH 7.4
T5 construct: gene Pden_1117; N-terminal His6, E. coli
T5 sequence (A1B131 1-216): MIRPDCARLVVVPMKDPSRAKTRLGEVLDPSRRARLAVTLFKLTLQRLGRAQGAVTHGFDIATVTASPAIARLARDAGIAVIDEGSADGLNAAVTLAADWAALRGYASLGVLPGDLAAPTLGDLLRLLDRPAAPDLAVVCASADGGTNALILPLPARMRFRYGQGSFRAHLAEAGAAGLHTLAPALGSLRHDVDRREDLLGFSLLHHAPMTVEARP

[6] = biological target: T6, Msmeg-FbiD (Mycolicibacterium smegmatis, UniProt A0QUZ4); test: combined CofC/D assay, LC-MS; format: biochemical; conditions: competitive mixture of 3-PG, 2-PL, PEP (0.5 mM each), 2 mM GTP, 2 mM MgCl2, FO, Mjan-CofD, pH 7.4
T6 construct: N-terminal His6, full length, E. coli (plasmid pMH10)
T6 sequence (A0QUZ4 whole entry): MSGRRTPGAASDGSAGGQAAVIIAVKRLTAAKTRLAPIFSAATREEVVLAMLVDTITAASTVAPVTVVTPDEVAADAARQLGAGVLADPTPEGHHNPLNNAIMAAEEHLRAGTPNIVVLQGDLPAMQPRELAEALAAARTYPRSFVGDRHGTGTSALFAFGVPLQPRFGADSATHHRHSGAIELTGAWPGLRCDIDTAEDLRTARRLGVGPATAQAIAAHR

[7] = biological target: T7, CofC (Oligotropha carboxidovorans) (Afipia carboxidovorans, UniProt B6JBS5); test: combined CofC/D assay, LC-MS; format: biochemical; conditions: competitive mixture of 3-PG, 2-PL, PEP (0.5 mM each), 2 mM GTP, 2 mM MgCl2, FO, Mjan-CofD, pH 7.4
T7 construct: gene fbiD; N-terminal His6, E. coli
T7 sequence (B6JBS5 1-237): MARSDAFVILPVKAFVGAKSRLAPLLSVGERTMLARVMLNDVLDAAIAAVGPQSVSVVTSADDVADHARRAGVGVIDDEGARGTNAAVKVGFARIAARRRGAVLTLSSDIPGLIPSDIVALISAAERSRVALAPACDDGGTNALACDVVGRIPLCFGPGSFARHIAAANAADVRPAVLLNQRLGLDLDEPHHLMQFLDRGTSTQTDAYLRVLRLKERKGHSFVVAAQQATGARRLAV

[8] = biological target: T8, CofC (Ca. E. factor) (Candidatus Entotheonella factor, UniProt W4LIL2); test: combined CofC/D assay, LC-MS; format: biochemical; conditions: competitive mixture of 3-PG, 2-PL, PEP (0.5 mM each), 2 mM GTP, 2 mM MgCl2, FO, Mjan-CofD, pH 7.4
T8 construct: gene ETSY1_21445; N-terminal His6, E. coli
T8 sequence (W4LIL2 entry or part of it): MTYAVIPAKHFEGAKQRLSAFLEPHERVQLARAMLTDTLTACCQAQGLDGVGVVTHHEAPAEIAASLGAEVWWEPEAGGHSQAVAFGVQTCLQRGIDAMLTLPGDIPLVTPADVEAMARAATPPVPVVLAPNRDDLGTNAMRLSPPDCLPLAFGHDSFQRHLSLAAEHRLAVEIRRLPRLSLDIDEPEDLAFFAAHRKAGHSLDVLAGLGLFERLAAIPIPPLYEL

[9] = biological target: T9, Mrhiz-CofC (Mycetohabitans rhizoxinica, UniProt E5ASS2); test: combined CofC/D assay, LC-MS; format: biochemical; conditions: competitive mixture of 3-PG, 2-PL, PEP (0.5 mM each), 2 mM GTP, 2 mM MgCl2, FO, cognate CofD, pH 7.4
T9 construct: N-terminal His6, full length, E. coli (plasmid pFS03)
T9 sequence (E5ASS2 6-221): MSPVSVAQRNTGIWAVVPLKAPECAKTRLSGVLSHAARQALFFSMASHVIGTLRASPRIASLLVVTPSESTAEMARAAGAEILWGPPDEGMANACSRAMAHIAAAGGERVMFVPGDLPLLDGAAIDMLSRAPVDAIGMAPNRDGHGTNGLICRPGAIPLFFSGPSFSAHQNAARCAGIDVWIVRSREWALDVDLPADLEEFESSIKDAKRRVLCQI

[10] = biological target: T10, Mjan-CofD (Methanocaldococcus jannaschii, UniProt Q58653); test: combined CofC/D assay, LC-MS; format: biochemical; conditions: coupled to CofC homologs forming LPPG, EPPG or GPPG; 2 mM GTP, 2 mM MgCl2, pH 7.4
T10 construct: N-terminal His6, E. coli
T10 sequence (Q58653 whole entry): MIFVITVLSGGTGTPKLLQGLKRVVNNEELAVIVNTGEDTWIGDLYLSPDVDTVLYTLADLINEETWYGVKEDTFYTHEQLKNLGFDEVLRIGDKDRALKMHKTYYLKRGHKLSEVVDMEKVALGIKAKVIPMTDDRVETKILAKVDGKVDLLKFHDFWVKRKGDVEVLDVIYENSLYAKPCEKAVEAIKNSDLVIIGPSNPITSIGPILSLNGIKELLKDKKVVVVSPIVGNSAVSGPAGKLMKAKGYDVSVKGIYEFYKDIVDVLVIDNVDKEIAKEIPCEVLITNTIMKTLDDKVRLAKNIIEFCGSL

[11] = biological target: T11, CofC (nano-DSF); test: nano-DSF; format: binding; conditions: GPPG co-purified with the enzyme may be present
T11 construct: N-terminal His6, E. coli; Results place the test beside MycB3-CofC, Discussion names M. rhizoxinica

SMILES: C[C@H](OP(=O)(O)O)C(=O)O [2-PL]
- combined CofC/D assay, LC-MS [1]: 2-PL was the best substrate of all three enzymes
- combined CofC/D assay, LC-MS [2]: 2-PL was the best substrate of all three enzymes
- combined CofC/D assay, LC-MS [3]: For all CofC-related enzymes analyzed, 2-PL was used most efficiently
- combined CofC/D assay, LC-MS [4]: For all CofC-related enzymes analyzed, 2-PL was used most efficiently
- combined CofC/D assay, LC-MS [5]: For all CofC-related enzymes analyzed, 2-PL was used most efficiently
- combined CofC/D assay, LC-MS [6]: the M. smegmatis FbiD tested in this study preferred 2-PL as substrate
- combined CofC/D assay, LC-MS [7]: For all CofC-related enzymes analyzed, 2-PL was used most efficiently
- combined CofC/D assay, LC-MS [8]: For all CofC-related enzymes analyzed, 2-PL was used most efficiently

SMILES: O=C(O)[C@H](O)COP(=O)(O)O [3-PG]
- combined CofC/D assay, LC-MS [1]: all of those enzymes accepted 3-PG as substrates
- combined CofC/D assay, LC-MS [2]: all of those enzymes accepted 3-PG as substrates
- combined CofC/D assay, LC-MS [9]: combined with their cognate CofD, the apparent substrate specificity shifted almost completely toward 3-PG

SMILES: O=c1nc2n(C[C@H](O)[C@H](O)[C@H](O)CO)c3cc(O)ccc3cc-2c(=O)[nH]1 [FO, 7,8-didemethyl-8-hydroxy-5-deazariboflavin]
- combined CofC/D assay, LC-MS [10]: Distinct derivatives of F420-0 were produced via biochemical reaction of purified CofC and CofD

SMILES: Nc1nc2c(ncn2[C@@H]2O[C@H](COP(=O)(O)OP(=O)(O)OP(=O)(O)O)[C@@H](O)[C@H]2O)c(=O)[nH]1 [GTP]
- Kd [11]: < 20 µM
